The results in this text go back to US20200290950A1, “ALKAMIDE COMPOUNDS AND USES THEREOF” (NORTH CAROLINA STATE UNIVERSITY, priority 2017, published 2020).

Each structure is given as a SMILES string.

In assay [1] the test system is RBL-2H3 cells. Briefly: TNF-α production, ELISA, 8 hrs (Example 1). Format: cell-based, rat. To be noted: 1 μM A23187, all doses tested. As to the method: (§1) FIGS. 6A-6B. A15 inhibits de novo production of TNF-α and PGE2 from RBL-2H3 cells. RBL-2H3 cells were plated and incubated overnight prior to stimulation. Cells were stimulated with 1 μM A23187 in combination with the indicated doses of A15. Supernatants were collected 8 hrs later and TNF-α (FIG. 6A) or PGE2 (FIG. 6B) levels were measured using ELISA kits. Data shown are the means±SEM from 3 independent experiments. Statistical analysis was performed using a one-way ANOVA with Dunnett's post-hoc test, *p<0.05, **p<0.01, ***p<0.001.
(§2) Bone marrow cells were isolated from the femurs of 6-8 week old C57BL/6 mice and cultured in RPMI-1640 containing 10% heat-inactivated FBS, non-essential amino acids, HEPES buffer, sodium pyruvate, 100 U/mL penicillin, 100 μg/mL streptomycin, 5 ng/mL mIL-3, and 5 ng/mL mSCF for 4-6 weeks until mature, bone marrow-derived mast cells (BMMCs) were obtained, as described previously (Kuehn et al., 2010). Differentiation into >98% mast cells was confirmed through toluidine blue staining (1%, pH 1). RBL-2H3, RAW 264.7, and Jurkat cells were obtained from the American Type Culture Collection (Manassas, Va.). […] Optical density was determined using a Synergy HT microplate reader (BioTek Instruments, Inc, Winooski, Vt.). […]

Assay [2] deals with RBL-2H3 cells. In words: PGE2 production, EIA, 8 hrs. As to conditions: 1 μM A23187, only at 100 μM. Type of assay: cell-based, rat. Here is the method:
as §1, §2

Assay [3] can be described thus: Paw withdrawal latency to heat, cold and touch after topical administration. To be noted: topical in mineral oil on mouse paws. Format: in vivo. As to the method:
FIG. 12. Antinociceptive effect of topical administration of alkamide A15. Measured paw withdrawal latency to Hargreave's (A) cold assay using dry ice (B) and touch using von-Frey (C). Data were analyzed using parametric evaluation (AUC).
Several different model systems were utilized for these experiments. In one model, dorsal root ganglia were obtained from mice and the neurons cultured in vitro. The neurons were then stimulated in the presence/absence of A15 and YM8-85 and the calcium responses monitored by fluorescence microscopy. In the second model, the alkamides were applied to mouse skin in mineral oil. The reactions of these mice to heat, cold, and tactile stimulation was then compared with mice that had not received treatment with A15. In a third model, mice were sensitized to the chemical compound toluene-2,4-diisocyanate (TDI). TDI is an industrial chemical which causes hypersensitive skin lesions and itching in exposed humans and animals. The physiological response to TDI is complex involving type 2 T lymphocytes, cytokines, mast cells, and neurons. Alkamides were applied to sensitized animals and then ear swelling and bouts of scratching were monitored.
In vivo responses to painful stimuli. A15 was tested with mice to determine whether the in vitro inhibitory responses noted in FIG. 11 are also seen in vivo. A15 was mixed in mineral oil and added to mouse paws prior to stimulation with heat, cold, or touch. […] Sensations of touch are mediated by distinct families of mechanoreceptors which are apparently unaffected by A15.

Assay [4] deals with RBL-2H3 cells. In words: TNF-α ELISA, 18 hrs (Example 3). As to conditions: 1 μM A23187, 18 hours. Format: cell-based, rat. As to the method: FIGS. 25A-25B. […] RBL-2H3 cells were plated overnight and stimulated with 1 μM A23187 in the absence or presence of each alkamide for 18 h. Culture supernatants were analyzed for TNF-α levels by ELISA and experiments were performed in triplicate (FIG. 25A). Percent inhibition of TNF-α secretion for each alkamide listed in FIG. 25B. *P<0.05, **P<0.01, ***P<0.001, one-way ANOVA with Dunnett's post hoc test compared to vehicle (FIG. 25A) or A15 (FIG. 25B).
RBL-2H3 cells (1.0×10^5 cells) were incubated overnight in a 24 well plate at 37° C. with 5% CO2. Cells were washed with 1×PBS and stimulated with 1 μM A23187 for 18 hrs in the absence or presence of each compound. The cells were centrifuged (1200×g, 5 min) and the supernatants were collected. The concentration of TNF-α in the supernatants were determined using the TNF-α ELISA kit.
For orientation: In an ELISA, binding on a coated surface is turned into a signal by an enzyme label.

Regarding `CCCCCCC/C=C/C=C/C(=O)NCC(C)C` [A15, (2E,4E)-N-Isobutyldodeca-2,4-dienamide], the “production of TNF-α” value in the assay with RBL-2H3 cells [1] is “significant, dose dependent inhibition”. Moreover, in the assay with RBL-2H3 cells [2], the “production of PGE2” value is listed as “weakly inhibited”. For the same compound, in assay [3], the “paw withdrawal latency to cold (dry ice)” value was “increased withdrawal latency”, the “paw withdrawal latency to heat (Hargreave's)” value is given as “increased withdrawal latency” and the “touch latency (von-Frey)” value is reported as “did not affect touch latency”. Moreover, the “percent inhibition of TNF-α secretion” value with RBL-2H3 cells [4] was determined as 79%.
